From US20140213575A1, “6H-Thieno[3,2-f][1,2,4]triazolo[4,3-a][1,4]diazepines” (BAYER INTELLECTUAL PROPERTY GMBH, priority 2011, published 2014)
“Also recorded” adds a separate entry of the source.

How the values were obtained:
[1] = test system: plasma proteins; assay: Plasma protein binding by equilibrium dialysis; format: in vitro ADME, mouse
Description: The binding of test substances to plasma proteins is determined by equilibrium dialysis by means of the Ht-dialysis apparatus (96-well) made of Teflon and a semipermeable membrane (regenerated cellulose, MWCO 12-14K). This separates 150 μl of each of a plasma side and a buffer side (50 mM phosphate buffer). The test substance is added in 2 concentrations (usually 3 and 0.3 μM) to the plasma side and binds to plasma proteins. The unbound fraction of the test substance passes through the membrane and is distributed on either side until equilibrium is established (after approx. 6-8 h at 37° C.). The substance concentration on the buffer side and the plasma side is determined by LC-MS analysis. For this, both sides are brought by dilution with buffer or plasma to the same matrix (10% plasma) and then precipitated with methanol. The free (unbound) fraction (fu) is calculated from the quotient of the buffer and plasma concentration. Stability tests and recovery tests are run concurrently as controls. In addition, the substance in buffer is dialysed against buffer, to check the nonspecific binding to apparatus and membrane and establishment of equilibrium. Because during incubation the osmotic pressure of the plasma proteins leads to dilution of the plasma (volume shift), this possible error is determined by weighing blank plasma samples and is included in the calculation of fu. Establishment of equilibrium and plasma stability should have a value not lower than 80% and the recovery should be at least 30%. A free fraction of <1% is regarded as high, between 1 and 10% as moderate and >10% as low plasma protein binding.

[2] = test system: B16F10 cells; assay: Cellular proliferation assay (alamarBlue) B16F10; format: cell-based; conditions: Mus musculus, B16-F10, 96 hours, read-out: Melanoma B16F10 IC50
Description: (§1) In accordance with the invention, the ability of the substances to inhibit the proliferation of various cell lines was determined. Cell viability was determined by means of the alamarBlue® reagent (Invitrogen). […] After incubation overnight at 37° C., the fluorescence values were determined (CI values). […] Then the fluorescence values were determined (CO values).
(§2) The substances were investigated in the cell lines in Table 1, which for example represent the stated indications: […]

[3] = test system: MCF-7 cells; assay: Cellular proliferation assay (alamarBlue) MCF-7; format: cell-based; conditions: Homo sapiens, MCF7, 96 hours, read-out: Breast MCF-7 IC50
Description: as §1, §2

[4] = test system: MDA-MB-231 cells; assay: Cellular proliferation assay (alamarBlue) MDA-MB-231; format: cell-based; conditions: Homo sapiens, 96 hours, read-out: Breast MDA-MB-231 IC50
Description: as §1, §2

[5] = test system: HeLa-MaTu cells; assay: Cellular proliferation assay (alamarBlue) HeLa-MaTu; format: cell-based; conditions: 96 hours, read-out: Cervix HeLa-MaTu IC50
Description: as §1, §2

[6] = test system: MOLM-13 cells; assay: MOLM-13 acute monocytic leukaemia tumour model; conditions: 70 mg/kg oral daily; significance P<0.05
Description: NMRI nude mice were inoculated subcutaneously in the right flank on day 0 with 2×10^6 MOLM-13 cells in 0.1 ml Matrigel. […] Practical example 1 and practical example 2 were dissolved in 40% PEG400, 5% ethanol, 25% Solutol. The substances were administered orally, daily for […] (day 3 to day 14). […] Practical examples 1 and 2 were applied at a daily dose of 200 (highest dose used), 120 or 70 mg/kg.

[7] = In-vivo tolerability in the mouse; set-up: species or system female NMRI nude mice; conditions: for Drug-induced deaths (day): 3 animals per group
Description: The substances were formulated in NMP/PEG300 (1/9 V/V). They were administered orally, in an amount of 10 ml/kg, once or twice daily for a period of 5 to 7 days to female NMRI nude mice (6-8 weeks old; 3 animals per group). Body weight and mortality of the mice were monitored daily up to the end of the study. Toxicity was defined as follows: ≧10% substance-induced deaths or ≧20% weight loss.

[8] = Plasma concentrations from in-vivo tests and PK parameters; conditions: mouse; for Plasma concentration: 60 mg/kg p.o.
Description: After thawing and shaking, the samples are centrifuged for 20 minutes at 4° C. and approx. 2000×g. An aliquot of the supernatant (approx. 25 μL) is measured by LCMS analysis. If high plasma or tissue levels are expected (>ULOQ, as a rule 5 μM) the precipitated samples are additionally diluted 1:100 with ACN/H2O (80/20, v/v)+internal standard and corresponding aliquots are measured by LCMS. For this, the test substance is added in 5-9 concentrations, corresponding to the determination range of the analytical method, to a control matrix (calibration samples), e.g. 0, 1, 10, 100, 1000, 5000 nM. For this, a portion of solid is weighed and is dissolved in DMSO (as a rule 1 mM stock solution). This stock solution is further diluted 1:10 with DMSO ([…]). Then 1:5 (v/v) ACN+internal standard (soln. A) is added to the calibration samples and processed further as with the plasma samples. The calibration series in solvent takes place similarly to the plasma calibration described. The test substance is in this case prepared in ACN/H2O (50/50, v/v) and then 1:5 (v/v) ACN+internal standard is added to the samples. This series serves for calibration of the diluted samples. The following PK parameters are calculated from these concentration-time profiles obtained: […]
AUC(0-tlast),norm multiplied by the free fraction (fu) of the species investigated.

[9] = test system: MOLM-13 cells; assay: Cellular proliferation assay (alamarBlue) MOLM-13; format: cell-based; conditions: Homo sapiens, 96 hours, read-out: Leukaemia MOLM-13 IC50
Description: as §1, §2

[10] = test system: LNCaP cells; assay: Cellular proliferation assay (alamarBlue) LNCaP; format: cell-based; conditions: Homo sapiens, 168 hours, read-out: Prostate LNCaP IC50
Description: as §1, §2

[11] = B16F10 melanoma tumour model; conditions: C57BL/6, mouse, in vivo, po
Description: (§3) C57BL/6 mice were inoculated on day 0 with 0.5×10^6 cells in 0.1 ml medium, subcutaneously, in the right flank. […] The substances were administered orally for 10 days (day 2 to day 11). […] Practical example 2 was applied at a dose of 160 or 120 mg/kg.

[12] = test system: B16F10 melanoma; assay: B16F10 melanoma tumour model; conditions: for weight loss: oral, day 2 to day 11
Description: as §3

[13] = test system: MOLP-8 cells; assay: Cellular proliferation assay (alamarBlue) MOLP-8; format: cell-based; conditions: Homo sapiens, 120 hours, read-out: Multiple myeloma MOLP-8 IC50
Description: as §1, §2

[14] = test system: VCaP cells; assay: Cellular proliferation assay (alamarBlue) VCaP; format: cell-based; conditions: Homo sapiens, 168 hours, read-out: Prostate VCaP IC50
Description: as §1, §2

[15] = oral 50 mg/kg, QD × 5, twice daily
[16] = oral 100 mg/kg, QD × 5, twice daily
[17] = oral 100 mg/kg, QD × 7, once daily

For Cc1sc2c(c1C)C(c1ccc(Cl)cc1)=N[C@@H](CC(=O)OC(C)(C)C)c1nnc(C)n1-2 [Example V1, tert-Butyl[(S)-4-(4-chlorophenyl)-2,3,9-trimethyl-6H-thieno[3,2-f][1,2,4]triazolo[4,3-a][1,4]diazepin-6-yl]acetate, reference compound], the fu ([1]; free fraction of the species investigated (mouse), as used in Table 6) was 1.5%, the fraction unbound ([1]; mouse, plasma, free (unbound) fraction, equilibrium dialysis, read-out: Protein binding, given as % fu) was 0.015 and the IC50 [2] was 67 nM. The IC50 [3] was 148 nM, the IC50 [4] was 86 nM and the IC50 [5] was 107 nM. For the same compound, the “activity on tumour growth” value [6] was “biologically active”, the “maximum body weight loss” value ([7]; 50 mg/kg twice daily, on day 6) was 7% and the highest weight loss ([7]; daily dose of 100 mg/kg for 7 days, on the 9th day) was 10%. For the same compound, the MTD ([7]; female, NMRI nude, mouse, in vivo, oral, once daily, read-out: maximum tolerated treatment dose (MTD), single daily treatment) was 100 mg/kg, the “% maximum body weight change (day)” value [7, 15] was −7 (6) % and the “Remarks (tolerability)” value [7, 15] was “MTD”. For the same compound, the “Drug-induced deaths (day)” value [7, 15] was 0/3, the “% maximum body weight change (day)” value [7, 16] was −19 (5) % and the “Remarks (tolerability)” value ([7]; oral 100 mg/kg, QD × 5, twice daily, 100 mg/kg) was “Not tolerated”. For the same compound, the “Drug-induced deaths (day)” value [7, 16] was 2, the “% maximum body weight change (day)” value [7, 17] was −10 (9) % and the “Remarks (tolerability)” value ([7]; oral 100 mg/kg, QD × 7, once daily, 100 mg/kg) was “tolerated; also recorded: MTD (10% body-”. For the same compound, the “Drug-induced deaths (day)” value [7, 17] was 0/3, the Plasma concentration ([8]; 1 h) was 2245.8 ng/mL and the Plasma concentration ([8]; 3 h) was 1220.2 ng/mL. The Plasma concentration ([8]; 5 h) was 587.2 ng/mL, the Plasma concentration ([8]; 7 h) was 321.5 ng/mL and the “AUC(0-tlast),norm,u” value ([8]; single oral dose 60 mg/kg, AUCnorm multiplied by fu) was 0.002 kg·h/L. For the same compound, the “AUC(0-tlast),norm” value ([8]; single oral dose 60 mg/kg, dose-normalized) was 0.12 kg·h/L, the tlast ([8]; single oral dose 60 mg/kg, last time point with measurable plasma concentration) was 7.0 h and the IC50 [9] was 59 nM. For the same compound, the IC50 [10] was 63 nM, the MTD at 10 days [11] was 55 mg/kg and the weight loss ([12]; 120 mg/kg dose) was 2%. The weight loss ([12]; 160 mg/kg dose) was 6%, the deaths ([12]; on day 12, in both dose groups) was “One mouse (out of 12) died” and the IC50 [13] was 63 nM. It also gave an IC50 [14] of 37 nM.
